# Measurements taken from patent US20210113493A1, “KETAMINE FOR THE TREATMENT OF M[…] SYMPTOMS” (priority 2016, published 2021).
# Assays:
# [1] = tested on: subclinical menstrually related symptoms; conditions: 50 mg lozenges, ½ to 2 once to three times daily
# [2] = tested on: symptoms of menstrual related pain and emotion; test: Evaluation of sublingual ketamine lozenges/ODTs in women, Daily Record of Severity of Problems
# [3] = Aun, Br. J. Anaesthesia 83: 29-41 (1999); cited from earlier work
smiles,measurement,setting,value
N[C@@]1(c2ccccc2Cl)CCC[C@@H](O)C1=O,mental clarity,[1],can experience an increase in mental clarity
CNC1(c2ccccc2Cl)CCCCC1=O (racemic) [ketamine],subjects reporting sufficient improvement with a 25 mg dose,"[2]; 25 mg dose, 9 women",Three subjects reported sufficient improvement
same,interference with functionality,"[2]; 50 mg dose, 9 women",One subject reported that a 50 mg dose interfered with their functionality
same,relief of PMS symptoms at 100 mg dose,"[2]; 100 mg dose, preferred by three subjects",substantial relief of PMS symptoms
same,negative after effects,[2]; 9 women,no reports of negative after effects
same,subjects reporting emotional symptom improvement during the symptomatic days of their cycles,"[2]; 9 women, 25-100 mg ketamine racemate sublingual lozenge/ODT",9 subjects
same,duration of effect,"[2]; all subjects, beyond the time of administration","lasting for days, or more, beyond the time of ketamine administration"
same,effect on breast tenderness and cramping,"[2]; physical symptoms, 9 women","positively affected in three subjects, but not in six others"
same,improvement of headaches,"[2]; physical symptoms, 9 women",Two subjects reported improvement of headaches
same,duration of anesthetic effects,"[2]; sublingual, first hour the intense portion",up to 2 hours
same,duration of relief of physical symptoms,"[2]; two subjects, doses of 50 mg and 100 mg, until menses began",5 days
CN[C@]1(c2ccccc2Cl)CCCCC1=O [S-(+)-ketamine],potency for use in anesthesia relative to R-(−)-ketamine,[3],twice as potent as R-(−)-ketamine
NC1(c2ccccc2Cl)CCCCC1=O (stereo not shown) [norketamine],potency for use in anesthesia relative to ketamine,[3],one third the potency of ketamine
